Measured values: patent US5137811A, “Method for diagnosing periodontal diseases with a substrate specific for aminopeptidase activity of periodontopathic bacteria” (Sunstar Kabushiki Kaisha, priority 1986, dated 1992)
Where a SMILES comes first, the peptide text is derived from it. The star is where a group is joined. βNA = c1ccc2cc(N*)ccc2c1; Cbz = O=C(OCc1ccccc1)*; Bz = O=C(c1ccccc1)*

Legend:
[1] = test system: Actinobacillus actinomycetemcomitans; test: Hydrolytic activity of oral anaerobe cell suspension on aminopeptidase substrates (Experiment 1); format: cell-based; conditions: four strains, substrate 0.2 mM, pH 7.0, 37° C., 60 minutes, Table 1
Experimental: (§1) Oral anaerobes, i.e., four strains of Treponema denticola, five strains of B. gingivalis, four strains of Actinobacillus actinomycetemcomitans, four strains of Capnocytophaga sp. and three strains of Fusobacterium nucleatum were tested for hydrolytic activity to the substrate of aminopeptidase enzyme as follows.
(§2) The strains of Treponema were anaerobically cultivated using TYGVS media at 37° C. for 7 days, while other bacterial strains were cultivated using brain heart infusion broth at 37° C. for 48 to 72 hours. Each culture was diluted to obtain a bacterial cell suspension, the absorption at 660 nm of which was 1.0.
(§3) Substrate compounds for aminopeptidase enzyme having various color developing groups derived from β-naphthylamine were dissolved in 0.1M Tris-HCl buffer (pH 7.0) at the concentration of 0.2 mM to obtain substrate solutions.
(§4) To the substrate solution (1.5 ml) was added the above cell suspension (0.3 ml) and reacted at 37° C. for 60 minutes. After completion of the reaction, a coloring reagent [prepared by dissolving diazonium salt of Garnet GBC in 1M acetate buffer (containing 10% Tween 20, pH: 4.2) at the concentration of 0.5 mg/ml] was added and, after 15 minutes, the absorption at 525 nm was determined with a spectrophotometer.
(§5) On the basis of the average amount of released β-naphthylamine in each strain, the hydrolytic activity was expressed as follows: […]

Bacteroides gingivalis = test: as above; format: cell-based; conditions: five strains, substrate 0.2 mM, pH 7.0, 37° C., 60 minutes, Table 1
Experimental: as §1, §2, §3, §4, §5

Capnocytophaga sp. = test: as above; format: cell-based; conditions: four strains, substrate 0.2 mM, pH 7.0, 37° C., 60 minutes, Table 1
Experimental: as §1, §2, §3, §4, §5

Fusobacterium nucleatum = test: as above; format: cell-based; conditions: three strains, substrate 0.2 mM, pH 7.0, 37° C., 60 minutes, Table 1
Experimental: as §1, §2, §3, §4, §5

Treponema denticola = test: as above; format: cell-based; conditions: four strains, substrate 0.2 mM, pH 7.0, 37° C., 60 minutes, Table 1
Experimental: as §1, §2, §3, §4, §5

[2] = test system: periodontopathic bacteria specific aminopeptidase activity; test: Hydrolytic activity of gingival crevicular fluid specimens, visually evaluated (Experiment 4); format: biochemical; set-up: key: -: orange; +: dark orange; ++: brown; +++: dark brown
Experimental: as §3, §4
Specimens of gingival crevicular fluid were collected with paper points from five subjects who were considered to be healthy from their clinical state, six subjects with gingivitis and six subjects with periodontitis. Each specimen was dispersed in Ringer's solution (1.5 ml), and the relative amount of spirochete to total bacteria: [formula] was determined with a phase contrast microscope. Further, the Ringer's solution (0.3 ml) was tested for hydrolytic activity using the substrate solution prepared in the same manner as described in Experiment 1. As substrates, there were used compounds of the formula [1], i.e., N-benzoylvalyl-glycyl-arginine-β-naphthylamide (BzVGR) and N-carbobenzoxy-valyl-glycyl-arginine-β-naphthylamide (CxVGR) were used.
In table 4, hydrolytic activity was visually evaluated and expressed as follows: […]

SMILES	hydrolytic activity (average amount of released β-naphthylamine) [1]	hydrolytic activity (average amount of released β-naphthylamine) (Bacteroides gingivalis)	hydrolytic activity (average amount of released β-naphthylamine) (Capnocytophaga sp.)	hydrolytic activity (average amount of released β-naphthylamine) (Fusobacterium nucleatum)	hydrolytic activity (average amount of released β-naphthylamine) (Treponema denticola)	also measured
N=C(N)NCCC[C@H](NC(=O)[C@@H](N)CCCCN)C(=O)Nc1ccc2ccccc2c1 [KR, lysyl-arginine-β-naphthylamide] (H-Lys-Arg-βNA)	- (release amount<5 nmol/ml)	++ (20 ≤release amount<40 nmol/ml)	+ (10 ≤release amount<20 nmol/ml)	- (release amount<5 nmol/ml)	+ (10 ≤release amount<20 nmol/ml)	
N=C(N)NCCC[C@H](NC(=O)[C@H](Cc1ccccc1)NC(=O)OCc1ccccc1)C(=O)Nc1ccc2ccccc2c1 [CxFR, N-carbobenzoxy-phenylalanyl-arginine-β-naphthylamide] (Cbz-Phe-Arg-βNA)	- (release amount<5 nmol/ml)	+++ (release amount≥40 nmol/ml)	- (release amount<5 nmol/ml)	- (release amount<5 nmol/ml)	+++ (release amount≥40 nmol/ml)	
CC(C)[C@H](NC(=O)c1ccccc1)C(=O)NCC(=O)N[C@@H](CCCNC(=N)N)C(=O)Nc1ccc2ccccc2c1 [BzVGR, N-benzoyl-valyl-glycyl-arginine-β-naphthylamide] (Bz-Val-Gly-Arg-βNA)	- (release amount<5 nmol/ml)	+++ (release amount≥40 nmol/ml)	- (release amount<5 nmol/ml)	- (release amount<5 nmol/ml)	+++ (release amount≥40 nmol/ml)	hydrolytic activity, visually evaluated ([2]; Gingivitis subject 1 (spirochete 7.3 %)): +; hydrolytic activity, visually evaluated ([2]; Gingivitis subject 2 (spirochete 16.7 %)): +; hydrolytic activity, visually evaluated ([2]; Gingivitis subject 3 (spirochete 20.5 %)): ++; hydrolytic activity, visually evaluated ([2]; Gingivitis subject 4 (spirochete 6.8 %)): -; hydrolytic activity, visually evaluated ([2]; Gingivitis subject 5 (spirochete 7.3 %)): -; hydrolytic activity, visually evaluated ([2]; Gingivitis subject 6 (spirochete 14.4 %)): +; hydrolytic activity, visually evaluated ([2]; Healthy subject 1 (spirochete 0.1 %)): -; hydrolytic activity, visually evaluated ([2]; Healthy subject 2 (spirochete 2.5 %)): +; hydrolytic activity, visually evaluated ([2]; Healthy subject 3 (spirochete 1.1 %)): -; hydrolytic activity, visually evaluated ([2]; Healthy subject 4 (spirochete 0.6 %)): -; hydrolytic activity, visually evaluated ([2]; Healthy subject 5 (spirochete 1.3 %)): -; hydrolytic activity, visually evaluated ([2]; Periodontitis subject 1 (spirochete 45.2 %)): +++; hydrolytic activity, visually evaluated ([2]; Periodontitis subject 2 (spirochete 30.3 %)): +++; hydrolytic activity, visually evaluated ([2]; Periodontitis subject 3 (spirochete 34.6 %)): +++; hydrolytic activity, visually evaluated ([2]; Periodontitis subject 4 (spirochete 21.2 %)): +++; hydrolytic activity, visually evaluated ([2]; Periodontitis subject 5 (spirochete 40.3 %)): +++; hydrolytic activity, visually evaluated ([2]; Periodontitis subject 6 (spirochete 35.1 %)): +++
N=C(N)NCCC[C@H](NC(=O)[C@H](CCCCN)NC(=O)OCc1ccccc1)C(=O)Nc1ccc2ccccc2c1 [CxKR, N-carbobenzoxy-lysyl-arginine-β-naphthylamide] (Cbz-Lys-Arg-βNA)	- (release amount<5 nmol/ml)	++ (20 ≤release amount<40 nmol/ml)	- (release amount<5 nmol/ml)	- (release amount<5 nmol/ml)	++ (20 ≤release amount<40 nmol/ml)	
N=C(N)NCCC[C@H](NC(=O)[C@H](Cc1ccccc1)NC(=O)[C@@H]1CCCN1)C(=O)Nc1ccc2ccccc2c1 [PFR, prolyl-phenylalanyl-arginine-β-naphthylamide] (H-Pro-Phe-Arg-βNA)	- (release amount<5 nmol/ml)	+++ (release amount≥40 nmol/ml)	- (release amount<5 nmol/ml)	- (release amount<5 nmol/ml)	+++ (release amount≥40 nmol/ml)	
NCCCC[C@H](NC(=O)CN)C(=O)Nc1ccc2ccccc2c1 [GK, glycyl-lysine-β-naphthylamide, reference compound] (H-Gly-Lys-βNA)	- (release amount<5 nmol/ml)	+ (10 ≤release amount<20 nmol/ml)	+ (10 ≤release amount<20 nmol/ml)	- (release amount<5 nmol/ml)	- (release amount<5 nmol/ml)	
N=C(N)NCCC[C@H](NC(=O)[C@@H](N)Cc1ccccc1)C(=O)Nc1ccc2ccccc2c1 [FR, phenylalanyl-arginine-β-naphthylamide] (H-Phe-Arg-βNA)	- (release amount<5 nmol/ml)	+ (10 ≤release amount<20 nmol/ml)	± (5 ≤release amount<10 nmol/ml)	- (release amount<5 nmol/ml)	+ (10 ≤release amount<20 nmol/ml)	
N=C(N)NCCC[C@H](NC(=O)[C@@H](N)CCCNC(=N)N)C(=O)Nc1ccc2ccccc2c1 [RR, arginyl-arginine-β-naphthylamide] (H-Arg-Arg-βNA)	- (release amount<5 nmol/ml)	+ (10 ≤release amount<20 nmol/ml)	+ (10 ≤release amount<20 nmol/ml)	- (release amount<5 nmol/ml)	+++ (release amount≥40 nmol/ml)	
NCC(=O)N[C@@H](Cc1ccccc1)C(=O)Nc1ccc2ccccc2c1 [GF, glycyl-phenylalanine-β-naphthylamide, reference compound] (H-Gly-Phe-βNA)	- (release amount<5 nmol/ml)	++ (20 ≤release amount<40 nmol/ml)	± (5 ≤release amount<10 nmol/ml)	- (release amount<5 nmol/ml)	- (release amount<5 nmol/ml)	
N=C(N)NCCC[C@H](N)C(=O)NCC(=O)Nc1ccc2ccccc2c1 [RG, arginyl-glycine-β-naphthylamide, reference compound] (H-Arg-Gly-βNA)	- (release amount<5 nmol/ml)	++ (20 ≤release amount<40 nmol/ml)	+ (10 ≤release amount<20 nmol/ml)	- (release amount<5 nmol/ml)	- (release amount<5 nmol/ml)	
N=C(N)NCCC[C@H](NC(=O)OCc1ccccc1)C(=O)N[C@@H](CCCNC(=N)N)C(=O)Nc1ccc2ccccc2c1 [CxRR, N-carbobenzoxy-arginyl-arginine-β-naphthylamide] (Cbz-Arg-Arg-βNA)	- (release amount<5 nmol/ml)	+++ (release amount≥40 nmol/ml)	- (release amount<5 nmol/ml)	- (release amount<5 nmol/ml)	+ +	
